In ChEMBL document CHEMBL4715889, “Novel amide and imidazole compounds as potent hematopoietic prostaglandin D synthase inhibitors” (Bioorg Med Chem Lett, 2021):
Converted amounts (≈) assume the structure as drawn.

Experiments:
[1] = target: T1, Hematopoietic prostaglandin D synthase (Homo sapiens, UniProt O60760); assay: Inhibition of HPGDS (unknown origin) assessed as reduction in reduction in LPS-induced PGD2 level by ELISA
[2] = target: T1, Hematopoietic prostaglandin D synthase; assay: Inhibition of HPGDS (unknown origin) assessed as reduction in reduction in GSTase activity relative to control; parameters: concentration or dose not given beside the values; settings: concentration not given here
[3] = target: T1, Hematopoietic prostaglandin D synthase; assay: Binding affinity to HPGDS (unknown origin) assessed as change in melting temperature by thermal shift assay
[4] = target: T1, Hematopoietic prostaglandin D synthase; assay: Inhibition of HPGDS (unknown origin) by fluorescence polarization assay
[5] = target: T1, Hematopoietic prostaglandin D synthase; assay: Binding affinity to HPGDS (unknown origin) assessed as change in melting temperature in presence of GSH by thermal shift assay
[6] = Half life in human liver microsomes; type: ADME, Microsome
[7] = Aqueous solubility of compound at pH 7.4; type: physicochemical
[8] = target: T1, Hematopoietic prostaglandin D synthase; assay: Competitive inhibition of human HPGDS using PGH2 as substrate

T1 sequence (O60760 whole entry): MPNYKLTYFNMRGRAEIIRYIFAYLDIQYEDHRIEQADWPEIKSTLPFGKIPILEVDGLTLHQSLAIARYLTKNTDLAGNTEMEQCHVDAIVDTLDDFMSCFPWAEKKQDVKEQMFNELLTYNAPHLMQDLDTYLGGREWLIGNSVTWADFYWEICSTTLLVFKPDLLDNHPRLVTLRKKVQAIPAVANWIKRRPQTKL

| Structure (SMILES) | IC50 [1] [nM] | inhibition [2] [%] | ΔTm [3] [°C] | IC50 [4] [nM] | ΔTm [5] [°C] | half-life [6] [h] | solubility [7] [µM] | Ki [8] [nM] |
| --- | --- | --- | --- | --- | --- | --- | --- | --- |
| c1ccc(-c2ncc(-c3cnc(-c4ccccn4)nc3)[nH]2)cc1 | 5060 | 18.2 | 0.2 | 1770 | 0.6 | – | – | – |
| c1ccc(-c2ncc(-c3cnc(-c4cccnc4)[nH]3)cn2)cc1 | 12.5 | 65.1 | 4.9 | 13.2 | 5.7 | – | – | – |
| CC(C)(O)c1nc(-c2cccc(-c3ncc(-c4cnc(-c5ccccc5)nc4)[nH]3)c2)no1 | 20.7 | 92.1 | 6.9 | 5.88 | 7.1 | > 1 | 3.3 (≈ 1.4 µg/mL) | – |
| O=C(NCc1ccccc1)c1cnc(-c2ccccc2)nc1 | 23.9 | 82.5 | 0.4 | 11.7 | 4.6 | – | – | – |
| CC(C)(O)c1nc(-c2cccc(-c3ncc(-c4cnc(-c5ccccn5)nc4)[nH]3)c2)no1 | – | 25.5 | 0.4 | 3200 | 0.6 | – | 17.5 (≈ 7.45 µg/mL) | – |
| c1ccc(C(OC2CCN(CCCc3nnn[nH]3)CC2)c2ccccc2)cc1 | – | – | – | – | – | – | – | 5000 |
| CC(C)(O)c1nc(-c2cccc(CNC(=O)c3ccc(-c4ccccn4)nc3)c2)no1 | 328 | 47.2 | 0.1 | 55.5 | 2.8 | – | – | – |
| CC(C)(O)c1nc(-c2cccc(CNC(=O)c3ccc(-c4ccccc4)nc3)c2)no1 | 808 | 62.4 | 0.2 | 27.7 | 3.3 | – | – | – |
| c1ccc(-c2ncc(-c3cnc(-c4cccnc4)s3)cn2)cc1 | > 5000 | 29.5 | 2.1 | 257 | 2.2 | – | – | – |
| CC(C)(O)c1nc(-c2cccc(CNC(=O)c3cnc(-c4ccccc4)nc3)c2)no1 | 9.86 | 83.9 | 0.4 | 7.18 | 4.95 | – | – | – |
| c1ccc(-c2ccc(-c3cnc(-c4ccccc4)[nH]3)cn2)cc1 | 40.5 | 85.2 | 3.2 | 31.6 | 4.4 | – | – | – |
| CC(C)(O)c1nc(-c2cccc(-c3ncc(-c4ccc(-c5ccccn5)nc4)[nH]3)c2)no1 | 23.4 | 76.1 | 4.8 | 78.6 | 5.4 | – | – | – |
| c1ccc(-c2ncc(-c3cnc(-c4ccccc4)[nH]3)cn2)cc1 | 59 | 94.5 | 3.6 | 8.88 | 3.8 | – | – | – |
| O=C(NCc1ccccc1)c1ccc(-c2ccccc2)nc1 | 1230 | 40.4 | 0.3 | 122 | 3 | – | – | – |
| CC(C)(O)c1nc(-c2cccc(-c3ncc(-c4ccc(-c5ccccc5)nc4)[nH]3)c2)no1 | 72 | 83.5 | 4.3 | 35.4 | 5.2 | – | – | – |
| CC(C)(O)c1nc(-c2cccc(CNC(=O)c3cnc(-c4ccccn4)nc3)c2)no1 | 11.6 | 90.9 | 0.5 | 7.48 | 5.1 | – | – | – |
| O=C(NCc1ccccc1)c1cnc(-c2ccccn2)nc1 | 35.7 | 71.3 | 0.2 | 7.14 | 4.2 | – | – | – |
| c1ccc(-c2ncc(-c3ccc(-c4ccccn4)nc3)[nH]2)cc1 | 44.5 | 73.5 | 4.2 | 37.2 | 5.2 | – | – | – |
| Cn1c(-c2cnc(-c3ccccc3)nc2)cnc1-c1ccccc1 | 723 | 38.4 | 3.1 | 63.1 | 3.4 | – | – | – |
| Cc1nc(-c2ccccc2)[nH]c1-c1cnc(-c2ccccc2)nc1 | 3740 | 81.5 | 4.3 | 30.8 | 4.5 | – | – | – |
| O=C(NCc1ccccc1)c1ccc(-c2ccccn2)nc1 | 453 | 19.2 | 0.1 | 80.7 | 2.8 | – | – | – |
